Experiments:
Assay type in all cases: cell-based
[1] = tested on: E. grandis clone 6084 explants; assay: Adventitious shoot regeneration from explants on regeneration medium, clone 6084
Procedure: (§1) Plant Materials and culture conditions. All elite clones were maintained as shoot clumps in Eucalyptus maintenance (EM) medium (Table 1) in magenta boxes or large disposable vessels and subcultured every 4-6 weeks. Shoot clumps were divided as needed and maintained as stock culture. Unless noted otherwise, all cultures were grown under shaded, cool fluorescent light with a light intensity of 30-40 gE/m^2/s with a photoperiod of 16 hours, and a temperature of 21° C.
(§2) Although leaves, petioles, internodes, floral tissues, and embryogenic tissues can be used for transformation and subsequent regeneration, leaf explants were selected because leaves are abundant. For transformation, explants of E. grandis clones 6075 and 6084 were incubated with Agrobacterium and were placed on co-culture medium, which was the same as the regeneration medium (Table 2) except with the following modifications: the addition of Agrobacterium inducer acetosyringone and the addition of plant growth regulators that are enriched in auxin. MS medium (Murashige and Skoog 1962) was used in the present co-culture medium; however, other salt media, such as Woody Plant Medium (WPM) salts (Loyd and McCown, 1980) or Lepoivre medium, may be used. Also, other Agrobacterium inducers may be used. Plant explants were co-cultured for four days under low light conditions or in the dark on the co-culture medium.
(§3) To test the ability of various cytokinins to stimulate adventitious regeneration, the effects of 4-CPPU, Zeatin, TDZ, meta-topolin, and adenine sulfate were compared. The levels of cytokinins varied from 0.025 to 10 μM. The base medium for this matrix is named H2—2.0 (or H2—2 for short), which is the primary MS-based regeneration medium (Table 2). The medium has been effective to induce shoot regeneration from many Eucalyptus species including E. grandis, E. dunnii, E. camaldulensis, E. urophylla, E. occidentalis, and E. saligna. The antibiotic timentin was added at 250 mg/L final concentration. Shoot regeneration was measured as the frequency of explants produced shoots. Explants were cultured on the regeneration medium for about 8-10 weeks before collection of final regeneration data.

[2] = tested on: E. grandis clone 6075 explants; assay: Adventitious shoot regeneration from explants on regeneration medium, clone 6075
Procedure: as §1, §2, §3

[3] = tested on: E. urophylla X grandis S-519; assay: Regeneration screening matrix, clone S-519; details: meta-topolin at least 2.5 μM, clone S519
Procedure: as §3
(§4) Combinations of meta-mopolin, 4-CPPU, and TDZ that gave the best regeneration across multiple experiments were combined with two standard regeneration media that have worked with other clones in the past to become a regeneration screening matrix for new clonal material.

[4] = tested on: E. amplifolia clone EA5490; assay: Regeneration screening matrix, clone EA5490; details: meta-topolin at least 2.5 μM
Procedure: as §3, §4

[5] = lower concentrations of 4-CPPU (0.025, 0.05 μM)

For `Oc1cccc(CNc2ncnc3nc[nH]c23)c1` [meta-topolin, N^6-(meta-hydroxybenzyl)adenine], the “adventitious shoot formation (in words)” value ([1]; meta-topolin at least 2.5 μM) was “significant increase in adventitious shoot formation”, the “adventitious shoot formation (in words)” value ([2]; meta-topolin at least 2.5 μM) was “significant increase in adventitious shoot formation” and the “adventitious shoot regeneration (in words)” value [3] was “significantly higher adventitious shoot regeneration”. For the same compound, the “adventitious shoot regeneration (in words)” value [4] was “significantly higher adventitious shoot regeneration”.

In the case of `O=C(Nc1ccccc1)Nc1ccnc(Cl)c1` [4-CPPU, N-(2-Chloro-4-pyridyl)-N′-phenylurea], the “adventitious shoot formation (in words)” value ([1]; 4-CPPU at 0.1 μM) is reported as “effective”, the “adventitious shoot formation (in words)” value [1, 5] is reported as “not effective in induce adventitious shoot formation” and the “adventitious shoot formation (in words)” value ([2]; 4-CPPU at 0.1 μM) is reported as “effective”. For the same compound, the “adventitious shoot formation (in words)” value [2, 5] was “not effective in induce adventitious shoot formation”.

For `O=C(Nc1ccccc1)Nc1cnns1` [TDZ, 1-phenyl-3-(1,2,3-thiadiazol-5-yl)urea], the “promotion of shoot regeneration (in words)” value ([1]; TDZ alone at 0.1 μM) was “not effective in promotion of shoot regeneration” and the “promotion of shoot regeneration (in words)” value ([2]; TDZ alone at 0.1 μM) was “not effective in promotion of shoot regeneration”.

— patent publication US20120137390A1, “MATERIALS AND METHODS FOR REGENERATION AND TRANSFORMATION OF TREES” (ArborGen Inc., priority 2009, published 2012)
